Experiment [1] concerns the target T1, S1P1 (Homo sapiens, UniProt P21453). As to the kind of experiment: Receptor binding assay, [33P]sphingosine 1-phosphate competition, membranes of CHO cells expressing S1P1. On the procedure:
(§1) Membranes were prepared from CHO cells expressing S1P1 or S1P3 for use in ligand binding studies. Cells were suspended in 50 mM TRIS, pH 7.4, 2 mM EDTA, 250 mM Sucrose (buffer A) and 1× Complete protease inhibitor cocktail (Roche), and disrupted at 4° C. by N2 decompression using a cell disruption bomb (Parr Instrument). Following centrifugation at 1000 RPM for 10 min at 4° C., the supernatant was diluted (2×) in buffer A and centrifuged again at 19000 RPM for 75 min at 4° C. The pellet was then suspended in 10 mM HEPES, pH 7.4, 1 mM EDTA, 250 mM Sucrose (Buffer B), and 1× Complete EDTA-free protease inhibitor cocktail and homogenized using a potter. Membranes were flash frozen in liquid N2 and stored at −80° C.
(§2) [33P]sphingosine 1-phosphate (3000 Ci/mmol; American Radiolabeled Chemicals, Inc.) was added to test compounds in 20% DMSO by competition. Membranes and WGA SPA beads (GE Healthcare) were added to give a final volume of 100 μl in 96-well plates or 50 μl in 384-well plates with assay concentrations of 30 pM or 15 pM [33P]sphingosine 1-phosphate (respectively for S1P1 or S1P3), 50 mM HEPES, pH 7.5, 5 mM MgCl2, 100 mM NaCl, 0.4% fatty acid-free BSA, 1-5 μg/well of proteins in 96-well plates vs 0.6-1 μg/well of proteins in 384-well plates and 100 μg/well of WGA SPA beads in 96-well plates vs 75 μg/well of WGA SPA beads in 384-well plates. Binding was performed for 60 min at RT on a shaker and bound radioactivity was measured on a PerkinElmer 1450 MicroBeta counter. Triplicate samples were averaged and normalized as percentage of inhibition relative to total binding (only DMSO in well) and non specific binding (1000-fold excess of unlabeled S1P). Binding data were analyzed using the GraphPad Prism program or Genedata software.
(§3) The “potency” or the “activity” of the compounds is determined by the Ki values as evaluated in one of the above described binding assay, 96 or 384 well plates.
Target sequence in this assay (P21453 whole entry, species assumed): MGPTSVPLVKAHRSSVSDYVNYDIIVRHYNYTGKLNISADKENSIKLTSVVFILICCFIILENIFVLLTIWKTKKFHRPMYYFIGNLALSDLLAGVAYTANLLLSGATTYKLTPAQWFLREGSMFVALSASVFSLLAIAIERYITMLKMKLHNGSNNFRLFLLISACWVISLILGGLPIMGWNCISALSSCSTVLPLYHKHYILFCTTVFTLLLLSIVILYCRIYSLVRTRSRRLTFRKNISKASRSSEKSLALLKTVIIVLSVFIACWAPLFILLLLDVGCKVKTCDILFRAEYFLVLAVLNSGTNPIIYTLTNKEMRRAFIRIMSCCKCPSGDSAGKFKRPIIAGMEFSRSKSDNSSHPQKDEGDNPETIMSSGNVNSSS

The target in a further experiment is S1P3 (Homo sapiens, UniProt Q99500). As to the kind of experiment: Receptor binding assay, [33P]sphingosine 1-phosphate competition, membranes of CHO cells expressing S1P3. How it is done: as §1, §2, §3
Chain of S1P3 (Q99500 whole entry, species assumed): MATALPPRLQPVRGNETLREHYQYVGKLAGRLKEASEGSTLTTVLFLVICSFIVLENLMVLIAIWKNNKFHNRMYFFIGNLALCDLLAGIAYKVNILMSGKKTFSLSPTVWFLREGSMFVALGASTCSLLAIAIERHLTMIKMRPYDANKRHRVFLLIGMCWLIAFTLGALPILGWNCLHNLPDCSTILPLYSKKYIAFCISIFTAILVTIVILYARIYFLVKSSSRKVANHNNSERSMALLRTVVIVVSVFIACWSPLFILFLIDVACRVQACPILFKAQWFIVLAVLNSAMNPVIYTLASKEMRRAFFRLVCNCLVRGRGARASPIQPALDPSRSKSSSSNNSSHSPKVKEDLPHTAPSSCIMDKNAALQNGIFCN
The target of experiment [2] is T1, S1P1. As to the kind of experiment: S1P1 internalization assay in S1P1-U2OS cells (cell imaging). The experiment is classed as cell-based. The arrangement: host or cells: U2OS (human bone osteosarcoma epithelial cells). As to conditions: U2OS cells expressing S1P1-EGFP, 384-well format. On the procedure: Cellular Functional Assays: Internalization of Sphinqosine-1-phosphate Receptor 1 (S1P1) in a Human Cell Line (U2OS) in a 384-Well Format Using a Cell Imaging Analysis.
The S1P1 internalization assay was performed in 384 well plates (Corning 384 black with clear bottom 3712) using S1P1-U2OS cells from BioImage (C039A), a human epithelial cell line (Human Bone Osteosarcoma Epithelial Cells). These cells expressed the human S1P1 Receptor fused to the green fluorescent protein (EGFP). A standard CMV promoter (cytomegalovirus promoter) controls the expression of S1P1-EGFP and continuous expression was maintained by addition of geneticin to the culture medium.
S1P1 Receptor desensitization induced the internalization of the membrane-localized S1P-EGFP fusion protein to endosomes, which can be monitored by cell imaging analysis.
The cells are plated in low serum medium (Dulbecco's Modified Eagle Medium (DMEM) with Glutamax-1 and high glucose, 1% Penicillin/Streptomycin, 1% Fetal Calf Serum (FCS), 0.5 mg/ml Geneticin) overnight.
The next day, S1P1-U2OS cells are incubated in 20 μl serum free medium (DMEM with Glutamax-1 and high glucose, 0.1% of fatty-acid free Bovin Serum Albumin (BSA), 10 mM, N′-2-Hydroxyethylpiperazine-N′-2 ethanesulphonic acid (HEPES) 1M) for 2 hours at 37° C./5% CO2. The cells are then treated with 4 μl compounds/agonists (6×/3% DMSO) for a total volume of 24 μl, and plates are incubated for 1 hour at 37° C./5% CO2.
S1P1-U2OS cells are fixed with 25 μl Paraformaldehyde 8% and stained with Hoechst 33345 dye (1:1000) for 20 minutes.
They were then washed 3 times with Phosphate Buffered Saline (PBS) and plates are sealed. The internalization of the receptor S1P1-EGFP is measured on Cellomics by calculating the “spot count per object” (“object” corresponds to nuclear and “spot” corresponds to S1P1-EGFP receptor). Internalization data were observed thanks to vHCS View and analyzed using Genedata® software.
Target sequence in this assay (P21453 whole entry): as the sequence (P21453 whole entry, species assumed) above

[3] abbreviates: 384 well plate, read-out: S1P1 Binding Ki [M] (384 well plate).
Setting [4] is: 384 well plate, read-out: S1P3 Binding Ki [M] (384 well plate).
Setting [5] is: 96 well plate, read-out: S1P1 Binding Ki [M] (96 well plate).
The mark [6] stands for this setting: 96 well plate, read-out: S1P3 Binding Ki [M] (96 well plate).

Molecules are shown by their SMILES. Counter-ions that a name gives are not always drawn. Like-named read-outs stand apart in the source and are kept apart here.

As a reminder, the Ki is the dissociation constant of the complex between target and ligand, obtained from inhibition or displacement. In general, EC50 refers to the concentration giving half of the maximal effect. Low readings indicate higher potency in that assay, high ones lower potency in that assay.

As to `Cc1cc(-c2nc(-c3ccc([C@H](C)N[C@H](C)C(=O)O)cc3)no2)ccc1-c1ccccc1C(F)(F)F` (racemic) [Example 25, N-[(1S)-1-(4-{5-[2-methyl-2′-(trifluoromethyl)biphenyl-4-yl]-1,2,4-oxadiazol-3-yl}phenyl)ethyl]-D-alanine and N-[(1R)-1-(4-{5-[2-methyl-2′-(trifluoromethyl)biphenyl-4-yl]-1,2,4-oxadiazol-3-yl}phenyl)ethyl]-L-alanine], the Ki on S1P1 [1] (setting [3]) is 2.59e-09 M; on S1P3 (setting [4]), above 2e-05 M. At S1P1 [2], this compound returned an EC50 of 28.1 nM.

Turning to `Cc1ccccc1-c1ccc(-c2nc(-c3ccc([C@H](C)N[C@@H](C)C(=O)O)cc3)no2)cc1C(F)(F)F` (racemic) [Example 26, N-[(1S)-1-(4-{5-[2′-methyl-2-(trifluoromethyl)biphenyl-4-yl]-1,2,4-oxadiazol-3-yl}phenyl)ethyl]-L-alanine, hydrochloride salt and N-[(1R)-1-(4-{5-[2′-methyl-2-(trifluoromethyl)biphenyl-4-yl]-1,2,4-oxadiazol-3-yl}phenyl)ethyl]-D-alanine, hydrochloride salt], the Ki is 2.24e-09 M on S1P1 [1] (setting [3]) and 1.65e-06 M on S1P3 (setting [4]). The EC50 at S1P1 [2] was found to be 21.6 nM.

`Cc1ccccc1-c1ccc(-c2nc(-c3ccc([C@H](C)N[C@H](C)C(=O)O)cc3)no2)cc1C(F)(F)F` (racemic) [Example 27, N-[(1S)-1-(4-{5-[2′-methyl-2-(trifluoromethyl)biphenyl-4-yl]-1,2,4-oxadiazol-3-yl}phenyl)ethyl]-D-alanine, hydrochloride salt and N-[(1R)-1-(4-{5-[2′-methyl-2-(trifluoromethyl)biphenyl-4-yl]-1,2,4-oxadiazol-3-yl}phenyl)ethyl]-L-alanine, hydrochloride salt]: the results for the Ki at S1P1 [1] (setting [3]) and on S1P3 (setting [4]) were 2.21e-09 M and 1.33e-06 M, respectively. For the same compound, at S1P1 [2], the concentration for a half-maximal effect (EC50) came to 7.84 nM.

For `CCC(C(=O)O)N(C)Cc1ccc(-c2noc(-c3ccc(-c4ccccc4C)c(C(F)(F)F)c3)n2)cc1F` (stereo not drawn) [Example 1, 2-[(2-fluoro-4-{5-[2′-methyl-2-(trifluoromethyl)biphenyl-4-yl]-1,2,4-oxadiazol-3-yl}benzyl)(methyl)amino]butanoic acid, hydrochloride salt], the figures for the Ki on S1P1 [1] (setting [3]) and at S1P3 (setting [4]) were 2.81e-09 M and 1.77e-06 M, respectively. At S1P1 [2], this compound registered a half-maximal effective concentration (EC50) of 43.3 nM.

On to `Cc1cc(-c2nc(-c3ccc([C@@H](C)N[C@H](C)C(=O)O)cc3)no2)ccc1-c1ccccc1C(F)F` [Example 2, N-[(1R)-1-(4-{5-[2′-(difluoromethyl)-2-methylbiphenyl-4-yl]-1,2,4-oxadiazol-3-yl}phenyl)ethyl]-D-alanine, hydrochloride salt], for which the Ki at S1P1 [1] (setting [5]) is 2.8e-10 M; on S1P1 [1] (setting [3]), 1.42e-09 M; at S1P3 (setting [4]) it was above 2e-05 M. The compound further registered an EC50 on S1P1 [2] of 10.3 nM.

In the case of `COCc1cc(-c2nc(-c3ccc([C@H](C)N[C@H](C)C(=O)O)cc3)no2)ccc1-c1ccccc1C` [Example 3, N-[(1S)-1-(4-{5-[2-(methoxymethyl)-2′-methylbiphenyl-4-yl]-1,2,4-oxadiazol-3-yl}phenyl)ethyl]-D-alanine, hydrochloride salt], the results for the Ki at S1P1 [1] (setting [5]), at S1P1 [1] (setting [3]) and at S1P3 (setting [4]) were 3.4e-10 M, 2e-09 M and 2.59e-06 M, respectively. This compound also returned an EC50 on S1P1 [2] of 8.19 nM.

Regarding `COCc1cc(-c2nc(-c3ccc([C@@H](C)N[C@H](C)C(=O)O)cc3)no2)ccc1-c1ccccc1C` [Example 4, N-[(1R)-1-(4-{5-[2-(methoxymethyl)-2′-methylbiphenyl-4-yl]-1,2,4-oxadiazol-3-yl}phenyl)ethyl]-D-alanine, hydrochloride salt], the Ki was found to be 1.45e-10 M at S1P1 [1] (setting [5]), 9.18e-10 M on S1P1 [1] (setting [3]), 2.2e-06 M on S1P3 (setting [6]) and 8.63e-07 M on S1P3 (setting [4]). Further, the 50% effective concentration (EC50) on S1P1 [2] worked out at 2 nM.

In the case of `COCc1cc(-c2nc(-c3ccc([C@H](C)NCC(=O)O)cc3)no2)ccc1-c1ccccc1C` [Example 5, N-[(1S)-1-(4-{5-[2-(methoxymethyl)-2′-methylbiphenyl-4-yl]-1,2,4-oxadiazol-3-yl}phenyl)ethyl]glycine, hydrochloride salt], the Ki at S1P1 [1] (setting [3]) turned out to be 1.27e-09 M; on S1P3 (setting [4]), 1.23e-06 M. In addition, a half-maximal response on S1P1 [2] (EC50) required 4.33 nM.

Consider `Cc1cc(-c2nc(-c3ccc([C@@H](C)N[C@H](C)C(=O)O)cc3)no2)ccc1-c1ccccc1C(F)(F)F` [Example 6, N-[(1R)-1-(4-{5-[2-methyl-2′-(trifluoromethyl)biphenyl-4-yl]-1,2,4-oxadiazol-3-yl}phenyl)ethyl]-D-alanine, hydrochloride salt], for which the inhibition constant (Ki) on S1P1 [1] (setting [5]) was 9.92e-10 M; on S1P1 [1] (setting [3]), 2.18e-09 M; at S1P3 (setting [6]), above 2e-05 M; on S1P3 (setting [4]), above 2e-05 M. This compound yielded a concentration giving a half-maximal response (EC50) on S1P1 [2] of 7.57 nM.

For `Cc1cc(-c2nc(-c3ccc([C@@H](C)NCC(=O)O)cc3)no2)ccc1-c1ccccc1C(F)F` [Example 7, N-[(1R)-1-(4-{5-[2′-(difluoromethyl)-2-methylbiphenyl-4-yl]-1,2,4-oxadiazol-3-yl}phenyl)ethyl]glycine, hydrochloride salt], the Ki is 3.7e-10 M on S1P1 [1] (setting [5]), 1.64e-09 M on S1P1 [1] (setting [3]), above 2e-05 M on S1P3 (setting [6]) and 5.24e-06 M at S1P3 (setting [4]). Besides, on S1P1 [2], the response was half-maximal at 17.9 nM (EC50).

Turning to `Cc1cc(-c2nc(-c3ccc([C@@H](C)NCC(=O)O)cc3)no2)ccc1-c1ccccc1C(F)(F)F` [Example 8, N-[(1R)-1-(4-{5-[2-methyl-2′-(trifluoromethyl)biphenyl-4-yl]-1,2,4-oxadiazol-3-yl}phenyl)ethyl]glycine, hydrochloride salt], the Ki at S1P1 [1] (setting [5]) was 9.13e-10 M; on S1P1 [1] (setting [3]), 3.68e-09 M; at S1P3 (setting [6]), above 2e-05 M; at S1P3 (setting [4]), 6.38e-06 M. The compound also displayed an EC50 on S1P1 [2] of 26.9 nM.

Turning to `COCc1cc(-c2nc(-c3ccc([C@@H](C)NCC(=O)O)cc3)no2)ccc1-c1ccccc1C` [Example 9, N-[(1R)-1-(4-{5-[2-(methoxymethyl)-2′-methylbiphenyl-4-yl]-1,2,4-oxadiazol-3-yl}phenyl)ethyl]glycine, hydrochloride salt], the inhibition constant Ki on S1P1 [1] (setting [5]) worked out at 1.75e-10 M; on S1P1 [1] (setting [3]), 1.11e-09 M; at S1P3 (setting [6]) it was 7.7e-07 M; at S1P3 (setting [4]) it was 4.94e-07 M. Also, it took 4.34 nM to reach a half-maximal effect on S1P1 [2] (EC50).

For the compound `CC[C@@H](N[C@H](C)c1ccc(-c2noc(-c3ccc(-c4ccccc4C)c(C(F)(F)F)c3)n2)cc1)C(=O)O` [Example 11, (2R)-2-{[(1R)-1-(4-{5-[2′-methyl-2-(trifluoromethyl)biphenyl-4-yl]-1,2,4-oxadiazol-3-yl}phenyl)ethyl]amino}butanoic acid, hydrochloride salt], the Ki amounted to 3.96e-09 M on S1P1 [1] (setting [3]) and 2.32e-06 M on S1P3 (setting [4]). At S1P1 [2], this compound registered a 50% effective concentration (EC50) of 26 nM.

Consider `Cc1ccccc1-c1ccc(-c2nc(-c3cc(F)cc(CN[C@@H](CC(C)C)C(=O)O)c3)no2)cc1C(F)(F)F` [Example 12, N-(3-fluoro-5-{5-[2′-methyl-2-(trifluoromethyl)biphenyl-4-yl]-1,2,4-oxadiazol-3-yl}benzyl)leucine, hydrochloride salt], for which the inhibition constant Ki worked out at 2.58e-09 M at S1P1 [1] (setting [3]) and 6.43e-07 M at S1P3 (setting [4]). At S1P1 [2], the EC50 is 28.9 nM.
